This is an account of results in publication PMC3825534 (Journal of Cancer Research and Clinical Oncology, 2013).

Series [1] deals with colon cancer cell lines RKO and HCT116. Put plainly: FMCA primary screening at 10 μM. To be noted: 10 μM drug concentration; both cell lines; hit criterion SI <40 %. In kind it is cell-based, human. The protocol:
For primary screening, the colon cancer cell lines HCT 116 and RKO, obtained from American Type Culture Collection (ATCC; Rockville, MD, USA), were cultured in McCoy’s 5a medium supplemented with 10 % heat-inactivated fetal bovine serum, 2 mM L-glutamine, 100 μg/ml streptomycin and 100 U/ml penicillin (all from Sigma-Aldrich St. Louis, MO, USA).
The Pharmakon 1600 library (Microsource Inc, MO, USA) consists of 1,600 annotated compounds previously used in the clinical setting. The library was delivered in […] each containing 80 compounds at a concentration of 10 mM dissolved in DMSO. For the primary screening, aliquots of the DMSO solutions were transferred to 384-well Labcyte source plates (Labcyte Inc, CA, USA) using a Biomek 2000 and stored at room temperature in containers under nitrogen atmosphere. These source plates were subsequently used to deliver 10 μM (final concentration) of each drug to 384-well screening plates using a acoustic dispensing Echo 550 instrument equipped with Labcytes Access robotics (Labcyte).
The fluorometric microculture cytotoxicity assay (FMCA), described in detail previously (Lindhagen et al. [2008]), was used for measurement of the cytotoxic effect of library compounds and the established standard drugs. The FMCA is based on measurement of fluorescence generated from hydrolysis of fluorescein diacetate (FDA) to fluorescein by cells with intact plasma membranes. Cells were seeded in 384-well plates using the pipetting robot Precision 2000 (Bio-Tek Instruments Inc, Winooski, VT) and cultured over night before drugs were added by the Echo 550 system. […] Results are expressed as survival index (SI), defined as fluorescence of experimental wells in per cent of unexposed control wells with blank values subtracted.
Screening data were exported to Vortex (Dotmatics Inc, UK) software for analysis. […] Structural similarity to other compounds in the library was calculated based on a structural fingerprint consisting of chemical fragments located within the compound as computed by Vortex. […]

In the next series the target is panel of 97 kinases. Description: KINOMEscan binding assay, whole panel. The note with it: for kinase binding: 10 µM, panel of 97 kinases; for Interactions Mapped / S-Score(35): 10 μM; for Interactions Mapped: 97 Assays Tested; for S-Score(35): number of non-mutant kinases with POC <35/number of non-mutant kinases tested. As for the experimental part: (§1) The binding affinities of ABZ and MBZ were tested at 10 μM in a high-throughput binding assay (KINOMEscan, Discoverx, CA, USA) against a panel of 97 kinases tagged with DNA (Davis et al. [2011]). Compounds that bind the kinase active site and directly or indirectly prevent kinase binding to an immobilized ligand will reduce the amount of kinase captured on solid support. […] Hits are identified by measuring the amount of kinase captured in test versus control samples by using a quantitative PCR method that detects the associated DNA label (http://www.discoverx.com/tools-resources/publications-references). Results are presented as percent of control (POC). Selectivity score (S-score) is a quantitative measure of compound selectivity. S(35) is calculated as number of non-mutant kinases with POC <35/number of non-mutant kinases tested. Binding constants were determined with the same method using 11-point threefold serial dilutions of the compound. Curves were fitted using a nonlinear least square fit with the Levenberg–Marquardt algorithm (Davis et al. [2011]).

The subject of series [2] is reactive oxygen species (ROS) generation. More on the design: method as in Locatelli et al. [2004]. To be noted: ref Locatelli et al. [2004]; cited from earlier work.
The conditions of series [3]: cited from earlier work.
Another series deals with T1, ABL1 nonphosphorylated (Homo sapiens, UniProt P00519).
T1 construct: purchased Discoverx (KINOMEscan service)
Description: KINOMEscan binding assay. As for the experimental part:
as §1

The target in the next series is T2, ABL1 phosphorylated (Homo sapiens, UniProt P00519).
T2 construct: purchased Discoverx (KINOMEscan service)
Description: KINOMEscan binding assay. As for the experimental part:
as §1

Series [4] has as its target T3, ABL1(E255K) phosphorylated (Homo sapiens, UniProt P00519, E255K).
T3 construct: purchased Discoverx (KINOMEscan service)
Description: KINOMEscan binding assay. The protocol:
as §1

Series [5] addresses T4, ABL1(T315I) phosphorylated (Homo sapiens, UniProt P00519, T315I).
T4 construct: purchased Discoverx (KINOMEscan service)
Description: KINOMEscan binding assay. As for the experimental part:
as §1

For the next series, the target named is T5, BRAF (Homo sapiens, UniProt P15056).
T5 construct: purchased Discoverx (KINOMEscan service)
T5 sequence (P15056 whole entry): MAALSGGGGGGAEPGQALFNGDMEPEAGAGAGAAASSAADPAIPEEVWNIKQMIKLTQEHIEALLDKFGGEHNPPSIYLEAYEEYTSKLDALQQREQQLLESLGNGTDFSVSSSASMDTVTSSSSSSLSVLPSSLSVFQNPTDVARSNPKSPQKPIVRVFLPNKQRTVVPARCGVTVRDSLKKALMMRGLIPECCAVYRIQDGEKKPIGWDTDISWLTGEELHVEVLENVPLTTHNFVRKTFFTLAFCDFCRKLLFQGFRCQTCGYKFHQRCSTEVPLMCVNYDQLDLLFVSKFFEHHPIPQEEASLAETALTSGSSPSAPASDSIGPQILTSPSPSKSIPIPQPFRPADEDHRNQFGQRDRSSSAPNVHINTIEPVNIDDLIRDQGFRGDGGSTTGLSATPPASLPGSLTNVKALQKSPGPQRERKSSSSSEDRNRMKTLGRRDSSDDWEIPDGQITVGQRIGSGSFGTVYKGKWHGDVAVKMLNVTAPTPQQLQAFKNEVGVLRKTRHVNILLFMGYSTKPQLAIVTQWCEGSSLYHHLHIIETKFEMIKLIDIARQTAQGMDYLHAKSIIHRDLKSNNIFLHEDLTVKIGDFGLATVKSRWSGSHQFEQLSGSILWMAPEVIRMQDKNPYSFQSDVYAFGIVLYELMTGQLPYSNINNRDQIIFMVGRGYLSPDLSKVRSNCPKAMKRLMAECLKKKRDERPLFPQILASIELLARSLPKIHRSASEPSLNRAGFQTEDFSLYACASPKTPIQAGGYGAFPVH
Description: KINOMEscan binding assay. The protocol: as §1

For a further series, the target named is T6, BRAF(V600E) (Homo sapiens, UniProt P15056, V600E).
T6 construct: purchased Discoverx (KINOMEscan service)
T6 sequence (P15056 whole entry V600E): as the sequence (P15056 whole entry) above, with V600E counted along it
Description: KINOMEscan binding assay. The protocol:
as §1

The next series concerns the target T7, JNK3 (Homo sapiens, UniProt P53779).
T7 construct: purchased Discoverx (KINOMEscan service)
Put plainly: KINOMEscan binding assay. As for the experimental part:
as §1

The next series deals with T8, KIT (Homo sapiens, UniProt P10721).
T8 construct: purchased Discoverx (KINOMEscan service)
T8 sequence (P10721 26-976): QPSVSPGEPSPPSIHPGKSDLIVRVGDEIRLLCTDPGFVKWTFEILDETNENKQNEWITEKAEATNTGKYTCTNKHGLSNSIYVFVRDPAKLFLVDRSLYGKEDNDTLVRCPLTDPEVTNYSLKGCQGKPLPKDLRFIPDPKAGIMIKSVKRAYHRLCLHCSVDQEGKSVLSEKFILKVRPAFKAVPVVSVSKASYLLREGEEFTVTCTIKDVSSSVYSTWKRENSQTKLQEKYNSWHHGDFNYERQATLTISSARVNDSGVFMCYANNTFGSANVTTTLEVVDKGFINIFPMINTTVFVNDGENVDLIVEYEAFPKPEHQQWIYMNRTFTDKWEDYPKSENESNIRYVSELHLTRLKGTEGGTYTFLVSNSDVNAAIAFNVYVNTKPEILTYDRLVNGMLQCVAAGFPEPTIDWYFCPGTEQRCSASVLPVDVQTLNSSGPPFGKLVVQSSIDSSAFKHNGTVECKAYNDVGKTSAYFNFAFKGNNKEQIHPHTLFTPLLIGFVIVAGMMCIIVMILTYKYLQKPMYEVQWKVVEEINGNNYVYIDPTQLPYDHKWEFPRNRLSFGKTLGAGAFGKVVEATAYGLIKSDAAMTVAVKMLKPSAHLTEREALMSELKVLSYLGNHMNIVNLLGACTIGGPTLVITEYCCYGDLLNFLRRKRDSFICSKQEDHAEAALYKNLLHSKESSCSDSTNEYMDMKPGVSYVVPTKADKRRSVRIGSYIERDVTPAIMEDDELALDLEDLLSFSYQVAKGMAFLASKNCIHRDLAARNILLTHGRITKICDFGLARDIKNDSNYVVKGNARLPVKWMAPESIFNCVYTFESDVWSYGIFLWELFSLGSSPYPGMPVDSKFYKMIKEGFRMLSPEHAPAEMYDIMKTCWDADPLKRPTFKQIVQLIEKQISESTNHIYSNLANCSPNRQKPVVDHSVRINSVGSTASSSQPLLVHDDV
Description: KINOMEscan binding assay. As for the experimental part:
as §1

The target of another series is T9, PDGFRA (Homo sapiens, UniProt P16234).
T9 construct: purchased Discoverx (KINOMEscan service)
T9 sequence (P16234 24-1089): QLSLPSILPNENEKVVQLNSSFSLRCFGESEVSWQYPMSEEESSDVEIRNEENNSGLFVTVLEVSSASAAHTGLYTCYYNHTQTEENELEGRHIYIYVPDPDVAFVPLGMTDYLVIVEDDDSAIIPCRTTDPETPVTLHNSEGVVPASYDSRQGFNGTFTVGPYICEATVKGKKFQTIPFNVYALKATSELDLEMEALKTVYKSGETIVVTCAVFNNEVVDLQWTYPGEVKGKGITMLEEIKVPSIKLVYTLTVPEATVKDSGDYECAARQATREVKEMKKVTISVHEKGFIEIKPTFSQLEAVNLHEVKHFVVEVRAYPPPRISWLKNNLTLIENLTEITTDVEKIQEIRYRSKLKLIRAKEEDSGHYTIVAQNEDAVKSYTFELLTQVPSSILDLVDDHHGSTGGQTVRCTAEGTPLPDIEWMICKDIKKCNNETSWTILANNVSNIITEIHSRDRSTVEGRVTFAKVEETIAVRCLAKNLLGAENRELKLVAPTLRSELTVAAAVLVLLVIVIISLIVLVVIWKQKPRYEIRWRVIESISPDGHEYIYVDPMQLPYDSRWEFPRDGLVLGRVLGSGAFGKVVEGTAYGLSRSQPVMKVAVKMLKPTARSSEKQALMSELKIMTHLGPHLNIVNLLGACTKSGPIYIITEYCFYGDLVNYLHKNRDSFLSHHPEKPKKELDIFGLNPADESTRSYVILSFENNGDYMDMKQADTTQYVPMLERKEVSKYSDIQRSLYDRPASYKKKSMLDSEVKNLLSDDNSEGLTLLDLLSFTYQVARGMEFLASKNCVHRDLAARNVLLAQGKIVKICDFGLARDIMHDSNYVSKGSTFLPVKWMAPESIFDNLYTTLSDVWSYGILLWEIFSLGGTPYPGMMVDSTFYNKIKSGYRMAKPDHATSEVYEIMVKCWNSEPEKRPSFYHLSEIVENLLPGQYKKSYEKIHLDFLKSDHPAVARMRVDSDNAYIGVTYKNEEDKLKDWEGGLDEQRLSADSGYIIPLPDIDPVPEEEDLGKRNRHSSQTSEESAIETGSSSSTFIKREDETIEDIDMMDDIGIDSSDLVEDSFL
Put plainly: KINOMEscan binding assay. As for the experimental part: as §1

Another series deals with T10, PDGFRB (Homo sapiens, UniProt P09619).
T10 construct: purchased Discoverx (KINOMEscan service)
T10 sequence (P09619 33-1106): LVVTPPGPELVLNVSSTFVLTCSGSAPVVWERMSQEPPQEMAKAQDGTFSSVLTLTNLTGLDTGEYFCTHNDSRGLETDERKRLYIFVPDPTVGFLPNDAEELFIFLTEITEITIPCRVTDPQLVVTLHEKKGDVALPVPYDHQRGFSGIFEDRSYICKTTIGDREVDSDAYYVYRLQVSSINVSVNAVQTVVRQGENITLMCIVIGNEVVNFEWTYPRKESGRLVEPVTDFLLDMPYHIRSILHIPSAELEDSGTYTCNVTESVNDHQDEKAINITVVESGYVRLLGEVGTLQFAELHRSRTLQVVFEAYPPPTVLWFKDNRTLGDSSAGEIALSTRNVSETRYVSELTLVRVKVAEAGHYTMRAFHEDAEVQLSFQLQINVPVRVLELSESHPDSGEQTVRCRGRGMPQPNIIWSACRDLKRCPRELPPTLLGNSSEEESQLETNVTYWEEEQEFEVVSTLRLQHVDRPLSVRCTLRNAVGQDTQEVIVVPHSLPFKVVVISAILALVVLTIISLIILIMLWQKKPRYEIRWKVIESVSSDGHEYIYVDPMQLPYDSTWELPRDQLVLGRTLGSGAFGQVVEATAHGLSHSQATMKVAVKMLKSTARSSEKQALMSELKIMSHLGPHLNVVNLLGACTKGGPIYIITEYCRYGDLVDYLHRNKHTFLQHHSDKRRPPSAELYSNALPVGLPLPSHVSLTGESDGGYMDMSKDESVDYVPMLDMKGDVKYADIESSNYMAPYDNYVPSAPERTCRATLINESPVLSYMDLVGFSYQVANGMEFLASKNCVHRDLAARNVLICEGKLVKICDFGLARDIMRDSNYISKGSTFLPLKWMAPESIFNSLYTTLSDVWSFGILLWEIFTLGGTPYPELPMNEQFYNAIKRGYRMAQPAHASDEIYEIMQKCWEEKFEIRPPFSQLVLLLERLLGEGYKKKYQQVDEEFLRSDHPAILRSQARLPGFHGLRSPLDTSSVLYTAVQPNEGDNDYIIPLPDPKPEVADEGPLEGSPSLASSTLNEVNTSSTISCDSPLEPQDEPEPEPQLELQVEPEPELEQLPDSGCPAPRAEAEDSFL
Description: KINOMEscan binding assay. As for the experimental part:
as §1

Series [6] deals with colon cancer cell lines (HCT 116, RKO, HT29, HT-8 and SW626). Description: FMCA concentration-response, colon cancer cell lines. In kind it is cell-based. The note with it: Homo sapiens; all 5 colon cancer cell lines; 72 h FMCA. The protocol: The colon cancer cell lines HT29, HT-8 and SW626 and the normal phenotype non-malignant epithelial MCF 10A, renal RPTEC/TERT1 and hepatocyte NeHepLxHT cell lines were used for validation experiments. These cell lines were all obtained from ATCC and cultured according to the protocols provided by the supplier. All the cell lines were cultured at 37 °C in a humidified atmosphere containing 5 % CO2.
For dose–response studies, Labcyte source plates and the Echo dispenser were used in a similar manner to deliver different concentrations of each drug to destination plates using on board software protocols (Labcyte).
The fluorometric microculture cytotoxicity assay (FMCA), described in detail previously (Lindhagen et al. [2008]), was used for measurement of the cytotoxic effect of library compounds and the established standard drugs. The FMCA is based on measurement of fluorescence generated from hydrolysis of fluorescein diacetate (FDA) to fluorescein by cells with intact plasma membranes. […] Results are expressed as survival index (SI), defined as fluorescence of experimental wells in per cent of unexposed control wells with blank values subtracted.
Concentration–response data of screening hits and standard agents were analyzed using the software GraphPad Prism4 (GraphPad Software Inc., San Diego, CA, USA). […]

Series [7] concerns NCI 60 cell line panel. Put plainly: NCI 60 growth inhibitory screen data mining (Cellminer). In kind it is cell-based. The protocol: Analysis of data from the National Cancer Institute growth inhibitory screen in 60 cell lines (NCI 60 GI 50 data) was performed with the help by the NCI Cellminer database (http://discover.nci.nih.gov/cellminer/). Z scores are determined for each experiment/cell line pair by the subtraction from its intensity by the experiment mean (across the 60 cell lines) and division by the standard deviation of the experiment (across the 60 cell lines). The z score average was then calculated as the mean across all experiments that passed quality control criteria. The z score will have a mean of zero and a standard deviation of one.

For series [8], the system named is NCI 60 cell line panel. Details: method as in NCI Cellminer database. The note with it: NCI 60 panel; ref NCI Cellminer database; read-out: average GI 50 over the panel; cited from earlier work.
Series [9] concerns refractory metastatic colon cancer. More on the design: method as in case report accepted for publication in Acta Oncologica. To be noted: 100 mg twice daily, ref case report accepted for publication in Acta Oncologica, cited from earlier work.
The subject of another series is glioma. More on the design: method as in Bai et al. [2011]. To be noted: two orthotopic mouse models of glioma; ref Bai et al. [2011]; cited from earlier work.
The test system of series [10] is protein kinases including Bcr–Abl. More on the design: method as in Park et al. [2012]. The note with it: ref Park et al. [2012]; cited from earlier work.
Setting [11] is: percent of control at 10 μM, read-out: POC (10 μM).

T7 sequence (P53779 whole entry): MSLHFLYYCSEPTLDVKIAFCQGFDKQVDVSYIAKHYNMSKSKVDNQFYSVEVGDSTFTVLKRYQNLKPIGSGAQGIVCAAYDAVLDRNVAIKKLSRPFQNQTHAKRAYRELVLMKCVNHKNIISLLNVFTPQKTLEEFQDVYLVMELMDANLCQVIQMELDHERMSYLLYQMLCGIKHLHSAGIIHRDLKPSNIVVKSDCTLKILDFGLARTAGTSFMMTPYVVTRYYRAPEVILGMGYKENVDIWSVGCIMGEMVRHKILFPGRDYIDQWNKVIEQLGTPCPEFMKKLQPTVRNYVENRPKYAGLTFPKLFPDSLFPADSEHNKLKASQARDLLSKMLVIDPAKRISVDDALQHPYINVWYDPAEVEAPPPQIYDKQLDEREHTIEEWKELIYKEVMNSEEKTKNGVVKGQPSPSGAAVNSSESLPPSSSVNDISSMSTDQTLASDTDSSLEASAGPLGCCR

In the case of `CCCOc1ccc2nc(NC(=O)OC)[nH]c2c1` [Oxibendazole, oxibendazole], the “survival index (SI)” value in [1] was “lowest SIs”.

For `CCCSc1ccc2nc(NC(=O)OC)[nH]c2c1` [albendazole], at panel of 97 kinases, the kinase binding result is recorded as “no kinase binding was observed”, the “Interactions Mapped” value is 1 and the “S-Score(35)” value is 0. The “survival index (SI)” value in [1] was “closely followed”. Moreover, the ROS generation entry in series [2] is “strong reactive oxygen species (ROS) generation”. Further, the dose-limiting toxicity entry in [3] (dose-escalating phase-I trial, ref Pourgholami et al. [2010]) is recorded as “neutropenia”. Moreover, the “toxicity in clinical study” value in [3] (patients with advanced cancers, ref Morris et al. [2001]) is given as “neutropenia”.

On to `COC(=O)Nc1nc2ccc(Sc3ccccc3)cc2[nH]1` [fenbendazole], for which the “survival index (SI)” value in series [1] is recorded as “closely followed”.

Regarding `COC(=O)Nc1nc2ccc(C(=O)c3ccccc3)cc2[nH]1` [mebendazole], the equilibrium dissociation constant (Kd) (in general, the constant that tells how readily two partners part at equilibrium) on ABL1 nonphosphorylated (average of two determinations) stood at 550 nM; on ABL1 phosphorylated (average of two determinations) it was 130 nM; in [4] (average of two determinations) it was 78 nM; in series [5] (average of two determinations), 170 nM; at BRAF (average of two determinations), 190 nM; at BRAF(V600E) (average of two determinations), 250 nM. Moreover, the Kd worked out at 420 nM on JNK3 (average of two determinations), 460 nM at KIT (average of two determinations), 340 nM at PDGFRA (average of two determinations) and 560 nM on PDGFRB (average of two determinations). Also, the remaining binding at 10 µM on ABL1 nonphosphorylated (setting [11]) stood at 2.4%; on ABL1 phosphorylated (setting [11]) it was 0.95%; in series [4] (setting [11]) it was 0.3%; in series [5] (setting [11]), 4.8%; on BRAF (setting [11]), 13%; on BRAF(V600E) (setting [11]), 5.1%. In addition, the remaining binding at 10 µM worked out at 5.2% on JNK3 (setting [11]), 2.9% at KIT (setting [11]), 15% on PDGFRA (setting [11]) and 2.3% at PDGFRB (setting [11]). Further, on panel of 97 kinases, the kinase binding result was “potent inhibitor of several kinases with high affinity”. Also, in the series on panel of 97 kinases, the “Interactions Mapped” value came to 20. Also, in the series with panel of 97 kinases, the “S-Score(35)” value is listed as 0.19. Also, the IC50 (commonly the concentration that gives 50% inhibition) in series [6] was below 5000 nM. Besides, the “frequency of sensitive cell lines (positive z scores)” value in the series on NCI 60 cell line panel [7] (colon cancer cell lines of NCI 60) is 80%; in the series on NCI 60 cell line panel [7] (lung cancer subpanel of NCI 60) it was 25%; in the series on NCI 60 cell line panel [7] (renal cancer subpanel of NCI 60) it was 28%. The GI50 in the series on NCI 60 cell line panel [8] is 460 nM. Further, the “computerized tomography evaluation, liver” value in series [9] (after six weeks of therapy) was “good partial remission”. In [9] (after six weeks of therapy), the “computerized tomography evaluation, metastases in the lungs and lymph nodes” value is given as “near complete remission”. Also, the adverse effects result in series [9] is “no subjective adverse effects at all”. Moreover, in the series with glioma, the survival entry is “significantly increase survival”.

Consider `COC(=O)Nc1nc2ccc(C(=O)c3cccs3)cc2[nH]1` [nocodazole], for which the protein kinase inhibition entry in [10] is “inhibit several protein kinases including Bcr–Abl”.
